Assay type in all cases: cell-based
The test system of one experiment is IL-17A. The experiment in a line: Cytokine assay: IL-17A production by human PBMC stimulated with PHA. Particulars: IC50 class, read-out: IL-17A Inhib. The procedure: (§1) Cytokine Assay: Analysis of Proliferation of and Cytokine Production by Human PBMC Stimulated with PHA
(§2) Peripheral blood mononuclear cells (PBMC) from healthy human donors were purified using Accuspin™ System-Histopaque-1077 (Sigma) according to the protocol recommended by the manufacturer. Purified PBMC were then washed twice with phosphate-buffered saline (PBS) and resuspended in RPMI1640 culture medium supplemented with 10% dialyzed heat inactivated fetal calf serum, 1.5 mM L-glutamine, 100 U penicillin/ml, and […] (all from PAN Biotech, Aidenbach, Germany). For stimulation, PBMC were seeded at 1×10^5 cells/well, activated with 2 μg/ml phytohaemagglutinin (PHA, Sigma) and incubated with the test compounds for 48 hours. IL-17A, IL-17F and INF-γ were then determined in the culture supernatant using a Luminex BioPlex system, following the manufacturer's instructions (BioRad, Munich, Germany). For screening, compounds were used at 10, 1, 0.1 and 0.01 μM. To determine the IC50, compounds were titrated semilogarithmically.
(§3) Cytokines were determined in the aforementioned culture supernatant using the following methods: IL-17A was measured using the human homodimer IL-17A ELISA Ready Set Go Kit from eBioscience (Frankfurt, Germany); IL-17F using the human IL-17F ELI-Pair from Hölzel DiagnosticaGmBH (Köln, Germany); and IFN-γ using the OptEIA human IFN-g ELISA from BD Bioscience (Heidelberg, Germany), all following the manufacturer's instructions.

The test system of another experiment is INF-γ. The experiment in a line: Cytokine assay: INF-γ production by human PBMC stimulated with PHA. Particulars: IC50 class, read-out: IFN-gamma Inhib. Here is the method:
as §1, §2, §3

In the next experiment the test system is IL-17F. The experiment in a line: Cytokine assay: IL-17F production by human PBMC stimulated with PHA. Conditions: IC50 class, read-out: IL-17F Inhib. Here is the method:
as §1, §2, §3

Like-named read-outs stand apart in the source and are kept apart here.

`Cc1c(-c2onc(-c3ccccc3Cl)c2C(=O)OC2COC2)cnn1C[C@H](C)O` [Example 47, oxetan-3-yl 3-(2-chlorophenyl)-5-{1-[(2S)-2-hydroxypropyl]-5-methyl-1H-pyrazol-4-yl}-1,2-oxazole-4-carboxylate]: the IC50 in the experiment with IL-17A (Homo sapiens, PBMC) is 50 to 500 nM; in the experiment with INF-γ (Homo sapiens, PBMC) it was 50 to 500 nM; in the experiment with IL-17F (Homo sapiens, PBMC) it was 50 to 500 nM.

`C[C@]1(O)C[C@H](n2ncc(-c3onc(-c4ccccc4Cl)c3C(=O)OC3CC3)c2C(F)(F)F)C1` [Example 48, cyclopropyl 3-(2-chlorophenyl)-5-(1-(3-hydroxy-3-methylcyclobutyl)-5-(trifluoromethyl)-1H-pyrazol-4-yl)isoxazole-4-carboxylate]: the IC50 in the experiment on IL-17A, with INF-γ and in the experiment on IL-17F was 500 to 5000 nM each time.

Take `C[C@]1(O)C[C@H](n2ncc(-c3onc(-c4c(F)cccc4Cl)c3C(=O)OC3CC3)c2C(F)(F)F)C1` [Example 50, cyclopropyl 3-(2-chloro-6-fluorophenyl)-5-(1-(3-hydroxy-3-methylcyclobutyl)-5-(trifluoromethyl)-1H-pyrazol-4-yl)isoxazole-4-carboxylate]: the IC50 is 50 to 500 nM in the experiment on IL-17A (Homo sapiens, PBMC); less than 50 nM in the experiment on INF-γ (Homo sapiens, PBMC); less than 50 nM in the experiment on IL-17F (Homo sapiens, PBMC).

`Cc1c(-c2onc(-c3ccccc3Cl)c2C(=O)OC2COC2)cnn1[C@H]1C[C@@](C)(O)C1` [Example 52, oxetan-3-yl 3-(2-chlorophenyl)-5-(1-(3-hydroxy-3-methylcyclobutyl)-5-methyl-1H-pyrazol-4-yl)isoxazole-4-carboxylate]: the IC50 in the experiment on IL-17A (Homo sapiens, PBMC) is 50 to 500 nM; in the experiment on INF-γ (Homo sapiens, PBMC), 50 to 500 nM; in the experiment on IL-17F (Homo sapiens, PBMC) it was 50 to 500 nM.

With `Cc1c(-c2onc(-c3ccccc3Cl)c2C(=O)OC2CC2)cnn1[C@H]1C[C@@](C)(O)C1` [Example 54, cyclopropyl 3-(2-chlorophenyl)-5-{5-methyl-1-[3-hydroxy-3-methylcyclobutyl]-1H-pyrazol-4-yl}-1,2-oxazole-4-carboxylate], the IC50 was in the range of 500 to 5000 nM with IL-17A, 50 to 500 nM in the experiment on INF-γ and 500 to 5000 nM in the experiment with IL-17F.

As for `CC(C)(O)Cn1ncc(-c2onc(-c3c(F)cccc3Cl)c2C(=O)OC2COC2)c1C(F)(F)F` [Example 57, oxetan-3-yl 3-(2-chloro-6-fluorophenyl)-5-[1-(2-hydroxy-2-methylpropyl)-5-(trifluoromethyl)-1H-pyrazol-4-yl]-1,2-oxazole-4-carboxylate], the IC50 in the experiment on IL-17A (Homo sapiens, PBMC) fell in the range of 500 to 5000 nM; in the experiment with INF-γ (Homo sapiens, PBMC), 50 to 500 nM; with IL-17F (Homo sapiens, PBMC), 50 to 500 nM.

As for `CC(C)(O)Cn1ncc(-c2onc(-c3c(F)cccc3Cl)c2CO)c1C(F)(F)F` [Example 63, 1-(4-(3-(2-chloro-6-fluorophenyl)-4-(hydroxymethyl)isoxazol-5-yl)-5-(trifluoromethyl)-1H-pyrazol-1-yl)-2-methylpropan-2-ol], the IC50 in the experiment with IL-17A (Homo sapiens, PBMC) was no less than 5000 nM; with INF-γ (Homo sapiens, PBMC), no less than 5000 nM; in the experiment with IL-17F (Homo sapiens, PBMC), no less than 5000 nM.

On to `C[C@]1(O)C[C@@H](n2ncc(-c3onc(-c4ccccc4Cl)c3CO)c2C(F)(F)F)C1` [Example 64, 3-(4-(3-(2-chlorophenyl)-4-(hydroxymethyl)-1,2-oxazol-5-yl)-5-(trifluoromethyl)-1H-pyrazol-1-yl)-1-methylcyclobutan-1-ol], for which the IC50 was no less than 5000 nM with IL-17A (Homo sapiens, PBMC); 500 to 5000 nM with INF-γ (Homo sapiens, PBMC); no less than 5000 nM with IL-17F (Homo sapiens, PBMC).

For `COCc1c(-c2c(F)cccc2Cl)noc1-c1cnn(C[C@H](C)O)c1C(F)(F)F` [Example 68, (2S)-1-(4-(3-(2-chloro-6-fluorophenyl)-4-(methoxymethyl)isoxazol-5-yl)-5-(trifluoromethyl)-1H-pyrazol-1-yl)propan-2-ol], the IC50 fell in the range of 500 to 5000 nM in the experiment with IL-17A (Homo sapiens, PBMC); 50 to 500 nM in the experiment with INF-γ (Homo sapiens, PBMC); 500 to 5000 nM in the experiment with IL-17F (Homo sapiens, PBMC).

`COCc1c(-c2ccccc2Cl)noc1-c1cnn([C@H]2C[C@@](C)(O)C2)c1C` [Example 72, 3-{4-[3-(2-chlorophenyl)-4-(methoxymethyl)-1,2-oxazol-5-yl]-5-methyl-1H-pyrazol-1-yl}-1-methylcyclobutan-1-ol]: the IC50 in the experiment with IL-17A (Homo sapiens, PBMC) was 50 to 500 nM; with INF-γ (Homo sapiens, PBMC) it was less than 50 nM; in the experiment with IL-17F (Homo sapiens, PBMC) it was 50 to 500 nM.

For the compound `COCc1c(-c2ccccc2Cl)noc1-c1cnn([C@H]2C[C@](C)(O)C2)c1C` [Example 73, 3-{4-[3-(2-chlorophenyl)-4-(methoxymethyl)-1,2-oxazol-5-yl]-5-methyl-1H-pyrazol-1-yl}-1-methylcyclobutan-1-ol], the IC50 was 500 to 5000 nM in the experiment with IL-17A (Homo sapiens, PBMC); 500 to 5000 nM with INF-γ (Homo sapiens, PBMC); 500 to 5000 nM in the experiment on IL-17F (Homo sapiens, PBMC).

With `COCc1c(-c2ccccc2Cl)noc1-c1cnn([C@H]2C[C@@](C)(O)C2)c1C(F)(F)F` [Example 74, 3-(4-(3-(2-chlorophenyl)-4-(methoxymethyl)isoxazol-5-yl)-5-(trifluoromethyl)-1H-pyrazol-1-yl)-1-methylcyclobutan-1-ol], the IC50 was in the range of 50 to 500 nM in the experiment on IL-17A (Homo sapiens, PBMC); 50 to 500 nM in the experiment with INF-γ (Homo sapiens, PBMC); 50 to 500 nM in the experiment on IL-17F (Homo sapiens, PBMC).

As for `COCCOCc1c(-c2ccccc2Cl)noc1-c1cnn(C[C@H](C)O)c1C(F)(F)F` [Example 75, (2S)-1-{4-[3-(2-chlorophenyl)-4-[(2-methoxyethoxy)methyl]-1,2-oxazol-5-yl]-5-(trifluoromethyl)-1H-pyrazol-1-yl}propan-2-ol], the IC50 fell in the range of 500 to 5000 nM in the experiment on IL-17A (Homo sapiens, PBMC); 500 to 5000 nM in the experiment on INF-γ (Homo sapiens, PBMC); 500 to 5000 nM with IL-17F (Homo sapiens, PBMC).

On to `Cc1c(-c2onc(-c3ccccc3Cl)c2COC2CC2)cnn1CCC(C)(C)O` [Example 79, 4-{4-[3-(2-chlorophenyl)-4-(cyclopropoxymethyl)-1,2-oxazol-5-yl]-5-methyl-1H-pyrazol-1-yl}-2-methylbutan-2-ol], for which the IC50 is 50 to 500 nM in the experiment on IL-17A (Homo sapiens, PBMC); less than 50 nM with INF-γ (Homo sapiens, PBMC); 50 to 500 nM with IL-17F (Homo sapiens, PBMC).

As for `Cc1c(-c2onc(-c3ccccc3Cl)c2COC2CC2)cnn1[C@H]1C[C@](C)(O)C1` [Example 81, 3-{4-[3-(2-chlorophenyl)-4-(cyclopropoxymethyl)-1,2-oxazol-5-yl]-5-methyl-1H-pyrazol-1-yl}-1-methylcyclobutan-1-ol], the IC50 in the experiment with IL-17A (Homo sapiens, PBMC) lay within 500 to 5000 nM; in the experiment on INF-γ (Homo sapiens, PBMC), 50 to 500 nM; with IL-17F (Homo sapiens, PBMC), 500 to 5000 nM.

For `Cc1c(-c2onc(-c3c(F)cccc3Cl)c2COC2CC2)cnn1[C@H]1C[C@](C)(O)C1` [Example 84, 3-{4-[3-(2-chloro-6-fluorophenyl)-4-(cyclopropoxymethyl)-1,2-oxazol-5-yl]-5-methyl-1H-pyrazol-1-yl}-1-methylcyclobutan-1-ol], the IC50 in the experiment on IL-17A (Homo sapiens, PBMC) fell in the range of 50 to 500 nM; with INF-γ (Homo sapiens, PBMC) it was 50 to 500 nM; with IL-17F (Homo sapiens, PBMC) it was 50 to 500 nM.

As to `C[C@H](O)Cn1ncc(-c2onc(-c3ccccc3Cl)c2COC2COC2)c1C(F)(F)F` [Example 88, (S)-1-(4-(3-(2-chlorophenyl)-4-((oxetan-3-yloxy)methyl)isoxazol-5-yl)-5-(trifluoromethyl)-1H-pyrazol-1-yl)propan-2-ol], the IC50 is no less than 5000 nM in the experiment on IL-17A (Homo sapiens, PBMC); 500 to 5000 nM in the experiment on INF-γ (Homo sapiens, PBMC); 500 to 5000 nM in the experiment with IL-17F (Homo sapiens, PBMC).

Consider `COc1cccc(-c2noc(-c3cnn(CCC(C)(C)O)c3C(F)(F)F)c2COC2CC2)c1Cl` [Example 91, 4-{4-[3-(2-chloro-3-methoxyphenyl)-4-(cyclopropoxymethyl)-1,2-oxazol-5-yl]-5-(trifluoromethyl)-1H-pyrazol-1-yl}-2-methylbutan-2-ol], for which the IC50 is less than 50 nM in the experiment on IL-17A (Homo sapiens, PBMC); less than 50 nM in the experiment on INF-γ (Homo sapiens, PBMC); less than 50 nM in the experiment on IL-17F (Homo sapiens, PBMC).

On to `COC(=O)c1c(-c2cccnc2O)noc1-c1cnn(CC(C)(C)O)c1C(F)(F)F` [Example 93, methyl 5-[1-(2-hydroxy-2-methylpropyl)-5-(trifluoromethyl)-1H-pyrazol-4-yl]-3-(2-hydroxypyridin-3-yl)-1,2-oxazole-4-carboxylate], for which the IC50 is 500 to 5000 nM with IL-17A (Homo sapiens, PBMC); 50 to 500 nM with INF-γ (Homo sapiens, PBMC); 50 to 500 nM in the experiment on IL-17F (Homo sapiens, PBMC).

Consider `C[C@@H](O)Cn1ncc(-c2cc(-c3c(F)cccc3Cl)no2)c1C(F)(F)F` [Example 94, (2R)-1-(4-(3-(2-chloro-6-fluorophenyl)isoxazol-5-yl)-5-(trifluoromethyl)-1H-pyrazol-1-yl)propan-2-ol], for which the IC50 is no less than 5000 nM in the experiment on IL-17A (Homo sapiens, PBMC); 500 to 5000 nM in the experiment with INF-γ (Homo sapiens, PBMC); no less than 5000 nM with IL-17F (Homo sapiens, PBMC).

Regarding `C[C@H](O)Cn1ncc(-c2onc(-c3ccccc3Cl)c2C2CCCO2)c1C(F)(F)F` (stereo partly drawn) [Example 96, (2S)-1-{4-[3-(2-chlorophenyl)-4-(oxolan-2-yl)-1,2-oxazol-5-yl]-5-(trifluoromethyl)-1H-pyrazol-1-yl}propan-2-ol], the IC50 in the experiment with IL-17A (Homo sapiens, PBMC) is 500 to 5000 nM; in the experiment with INF-γ (Homo sapiens, PBMC), 50 to 500 nM; with IL-17F (Homo sapiens, PBMC) it was 500 to 5000 nM.

On to `C[C@]1(O)C[C@@H](n2ncc(-c3onc(-c4c(F)cccc4Cl)c3-c3ccncn3)c2C(F)(F)F)C1` [Example 105, 3-{4-[3-(2-chloro-6-fluorophenyl)-4-(pyrimidin-4-yl)-1,2-oxazol-5-yl]-5-(trifluoromethyl)-1H-pyrazol-1-yl}-1-methylcyclobutan-1-ol], for which the IC50 in the experiment on IL-17A is 500 to 5000 nM; in the experiment with INF-γ it was 50 to 500 nM; in the experiment with IL-17F, 50 to 500 nM.
